System in the first test: not listed separately
Description: Ratio of the LC50 value to that of PBI-A. The format is functional.
For `CCC(=O)OC1CCn2c1nc1c2C(=O)C(C)=C(N2CC2)C1=O` (configuration not stated), the Ratio stood at 0.72. For the compound `CC1=C(N2CC2)C(=O)c2nc3n(c2C1=O)CCC3OC(N)=O` (configuration not stated), the Ratio is 0.84. As for `CC1=C(N2CC2)C(=O)c2nc3n(c2C1=O)CCC3`, the Ratio stood at 0.71. For the compound `CC(=O)OC1CCn2c1nc1c2C(=O)C(C)=C(N2CC2)C1=O` (configuration not stated), the Ratio was 1.

The subject of a further test is Cancer cell lines. As to the kind of experiment: Ratio of the LC50 value to that of imino-APBI-A. The format is functional.
For the compound `CC(=O)NC1=C(C)C(=O)c2c(nc3n2CCC3O)C1=N` (configuration not stated), the Ratio is recorded as 0.09. `CC(=O)NC1=C(C)C(=O)c2c(nc3n2CCC3OC(=O)c2ccccc2)C1=N` (configuration not stated): the Ratio is 0.58.

Turning to `COCC(=O)C1CCn2c1nc1c2C(=O)C(C)=C(NC(C)=O)C1=N` (configuration not stated), the Ratio came to 0.52. The same measure, in the same setting: to `CCC(=O)OC1CCn2c1nc1c2C(=O)C(C)=C(NC(C)=O)C1=N` (configuration not stated) belongs 0.26; to `CC(=O)NC1=C(C)C(=O)c2c(nc3n2CCC3OC(C)=O)C1=N` (configuration not stated), 1.

System in a further test: not listed separately
Description: COMPARE correlation coefficient of the LC50 response pattern with that of APBI-A.
`CC(=O)NC1=C(C)C(=O)c2c(nc3n2CCC3OC(C)=O)C1=O` (configuration not stated) displayed a COMPARE correlation coefficient of 1. `CC(=O)NC1=C(C)C(=O)c2c(nc3n2CCC3)C1=O` yielded a COMPARE correlation coefficient of 0.7. Still for that read-out and setting: to `COCC(=O)C1CCn2c1nc1c2C(=O)C(C)=C(NC(C)=O)C1=O` (configuration not stated) belongs 0.71.

The values above are taken from ChEMBL document CHEMBL1128734, “Pyrrolo[1,2-a]benzimidazole-based quinones and iminoquinones. The role of the 3-substituent on cytotoxicity” (J Med Chem, 1995).
